# Data from patent US8211662B2, “Nitroreductase enzymatic substrates” (Biomerieux, priority 2007, dated 2012).
# Legend:
# [1] = tested on: Bacillus subtilis NCTC 9372; assay: Nitroreductase detection on Columbia agar, colonies read under UV; format: cell-based; design: key: − = no fluorescence detected; +/− = weak fluorescence; + = medium fluorescence; ++ = strong fluorescence; conditions: 100 mg/l in Columbia agar, 24 h 37° C., UV 360-365 nm
# Protocol: (§1) A mass of 40 mg of each substrate was dissolved in 4 ml of dimethylformamide (DMF). This solution was entirely taken up in 400 ml of Columbia agar autoclaved beforehand and kept molten at 50° C. The final concentration for each substrate was 100 mg/l.
# (§2) Each of the media was distributed into Petri dishes 90 mm in diameter, in a proportion of 20 ml per dish.
# (§3) 18 microorganism strains derived from collections and belonging to various species of bacteria and of yeasts were inoculated onto these media by semi-quantitative isolation of 10 μl of a suspension at 0.5 McFarland diluted to 1/20. The media were incubated for 24 hours at 37° C., then the colonies formed were examined visually under UV illumination at 360-365 nm.
# [2] = tested on: Candida albicans ATCC 90028; assay: as above; format: cell-based; design: key: − = no fluorescence detected; +/− = weak fluorescence; + = medium fluorescence; ++ = strong fluorescence; conditions: 100 mg/l in Columbia agar, 24 h 37° C., UV 360-365 nm
# Protocol: as §1, §2, §3
# [3] = tested on: Enterobacter cloacae NCTC 11936; assay: as above; format: cell-based; design: key: − = no fluorescence detected; +/− = weak fluorescence; + = medium fluorescence; ++ = strong fluorescence; conditions: 100 mg/l in Columbia agar, 24 h 37° C., UV 360-365 nm
# Protocol: as §1, §2, §3
# [4] = tested on: Enterococcus faecalis NCTC 775; assay: as above; format: cell-based; design: key: − = no fluorescence detected; +/− = weak fluorescence; + = medium fluorescence; ++ = strong fluorescence; conditions: 100 mg/l in Columbia agar, 24 h 37° C., UV 360-365 nm
# Protocol: as §1, §2, §3
# [5] = tested on: Escherichia coli NCTC 10418; assay: as above; format: cell-based; design: key: − = no fluorescence detected; +/− = weak fluorescence; + = medium fluorescence; ++ = strong fluorescence; conditions: 100 mg/l in Columbia agar, 24 h 37° C., UV 360-365 nm
# Protocol: as §1, §2, §3
# [6] = tested on: Listeria monocytogenes NCTC 11994; assay: as above; format: cell-based; design: key: − = no fluorescence detected; +/− = weak fluorescence; + = medium fluorescence; ++ = strong fluorescence; conditions: 100 mg/l in Columbia agar, 24 h 37° C., UV 360-365 nm
# Protocol: as §1, §2, §3
# [7] = tested on: Pseudomonas aeruginosa NCTC 10662; assay: as above; format: cell-based; design: key: − = no fluorescence detected; +/− = weak fluorescence; + = medium fluorescence; ++ = strong fluorescence; conditions: 100 mg/l in Columbia agar, 24 h 37° C., UV 360-365 nm
# Protocol: as §1, §2, §3
# [8] = tested on: Serratia marcescens NCTC 10211; assay: as above; format: cell-based; design: key: − = no fluorescence detected; +/− = weak fluorescence; + = medium fluorescence; ++ = strong fluorescence; conditions: 100 mg/l in Columbia agar, 24 h 37° C., UV 360-365 nm
# Protocol: as §1, §2, §3
# [9] = tested on: Staphylococcus aureus NCTC 6571; assay: as above; format: cell-based; design: key: − = no fluorescence detected; +/− = weak fluorescence; + = medium fluorescence; ++ = strong fluorescence; conditions: 100 mg/l in Columbia agar, 24 h 37° C., UV 360-365 nm
# Protocol: as §1, §2, §3
# [10] = tested on: Staphylococcus epidermidis NCTC 11047; assay: as above; format: cell-based; design: key: − = no fluorescence detected; +/− = weak fluorescence; + = medium fluorescence; ++ = strong fluorescence; conditions: 100 mg/l in Columbia agar, 24 h 37° C., UV 360-365 nm
# Protocol: as §1, §2, §3
# [11] = tested on: Streptococcus pyogenes NCTC 8306; assay: as above; format: cell-based; design: key: − = no fluorescence detected; +/− = weak fluorescence; + = medium fluorescence; ++ = strong fluorescence; conditions: 100 mg/l in Columbia agar, 24 h 37° C., UV 360-365 nm
# Protocol: as §1, §2, §3
# [12] = tested on: Yersinia enterocolitica NCTC 11176; assay: as above; format: cell-based; design: key: − = no fluorescence detected; +/− = weak fluorescence; + = medium fluorescence; ++ = strong fluorescence; conditions: 100 mg/l in Columbia agar, 24 h 37° C., UV 360-365 nm
# Protocol: as §1, §2, §3
# [13] = tested on: Acinetobacter baumanii ATCC 19606; assay: as above; format: cell-based; design: key to Intensity of fluorescence, Acinetobacter baumanii ATCC 19606 / Intensity of the fluorescence, Acinetobacter baumanii ATCC 19606: − = no fluorescence detected; +/− = weak fluorescence; + = medium fluorescence; ++ = strong fluorescence
# Protocol: as §1, §2, §3
# [14] = tested on: Salmonella typhimurium NCTC 74; assay: as above; format: cell-based; design: key to Intensity of fluorescence, Salmonella typhimurium NCTC 74 / F: fluorescence (intensity), Salmonella typhimurium NCTC 74 / Intensity of the fluorescence, Salmonella typhimurium NCTC 74: − = no fluorescence detected; +/− = weak fluorescence; + = medium fluorescence; ++ = strong fluorescence
# Protocol: as §1, §2, §3
# [15] = tested on: Morganella morganii 462403 (wild); assay: as above; format: cell-based; design: key to Intensity of fluorescence, Morganella morganii 462403 / F: fluorescence (intensity), Morganella morganii 462403 (wild) / Intensity of the fluorescence, Morganella morganii 462403 (wild): − = no fluorescence detected; +/− = weak fluorescence; + = medium fluorescence; ++ = strong fluorescence; conditions: 100 mg/l in Columbia agar, 24 h 37° C., UV 360-365 nm
# Protocol: as §1, §2, §3
# MRSA NCTC 11939 = assay: as above; format: cell-based, Staphylococcus aureus; design: key: − = no fluorescence detected; +/− = weak fluorescence; + = medium fluorescence; ++ = strong fluorescence; conditions: 100 mg/l in Columbia agar, 24 h 37° C., UV 360-365 nm
# Protocol: as §1, §2, §3
# [16] = tested on: Candida glabrata NCPF 3943; assay: as above; format: cell-based; design: key to Intensity of fluorescence, Candida glabrata NCPF3943 / F: fluorescence (intensity), Candida glabrata NCPF 3943 / Intensity of the fluorescence, Candida glabrata NCPF 3943: − = no fluorescence detected; +/− = weak fluorescence; + = medium fluorescence; ++ = strong fluorescence; conditions: 100 mg/l in Columbia agar, 24 h 37° C., UV 360-365 nm
# Protocol: as §1, §2, §3
# [17] = tested on: S. aureus (including MRSA) 10 strains; assay: Detection of various strains of S. aureus in the presence of substrates; format: cell-based, Staphylococcus aureus; conditions: for No. of strains detected, S. aureus (including MRSA): 10 strains
# S. epidermidis 2 strains = assay: as above; format: cell-based
# Protocol: as §1, §2
# 18 microorganism strains derived from collections and belonging to various species of bacteria and of yeasts were inoculated onto these media by semi-quantitative isolation of 10 μl of a suspension at 0.5 McFarland diluted to 1/20. […]
# Staph spp 12 strains = assay: as above; format: cell-based
# Enterococcus 6 strains = assay: as above; format: cell-based
# [18] = tested on: Citrobacter freundii 46262 (wild); assay: Nitroreductase detection on Columbia agar, colonies read under UV; format: cell-based; design: key: − = no fluorescence detected; +/− = weak fluorescence; + = medium fluorescence; ++ = strong fluorescence; conditions: Table 4; 100 mg/l in Columbia agar, 24 h 37° C., UV 360-365 nm
# Protocol: as §1, §2, §3
# [19] = tested on: Enterococcus faecium NCTC 7171; assay: as above; format: cell-based; design: key: − = no fluorescence detected; +/− = weak fluorescence; + = medium fluorescence; ++ = strong fluorescence; conditions: Table 4; 100 mg/l in Columbia agar, 24 h 37° C., UV 360-365 nm
# Protocol: as §1, §2, §3
# [20] = tested on: Providencia rettgeri NCTC 7475; assay: as above; format: cell-based; design: key: − = no fluorescence detected; +/− = weak fluorescence; + = medium fluorescence; ++ = strong fluorescence; conditions: Table 4; 100 mg/l in Columbia agar, 24 h 37° C., UV 360-365 nm
# Protocol: as §1, §2, §3
# [21] = 100 mg/l in Columbia agar, 24 h 37° C., UV 360-365 nm
# [22] = Table 4, 100 mg/l in Columbia agar, 24 h 37° C., UV 360-365 nm
structure (smiles),measurement,setting,value
O=[N+]([O-])c1ccc(F)cc1-c1nc2ccccc2o1 [Substrate 7],"Intensity of fluorescence, Bacillus subtilis NCTC 9372",[1],−
same,"Intensity of fluorescence, Candida albicans ATCC 90028",[2],−
same,"Intensity of fluorescence, Enterobacter cloacae NCTC 11936",[3],++
same,"Intensity of fluorescence, Enterococcus faecalis NCTC 775",[4],−
same,"Intensity of fluorescence, Escherichia coli NCTC 10418",[5],++
same,"Intensity of fluorescence, Listeria monocytogenes NCTC 11994",[6],−
same,"Intensity of fluorescence, Pseudomonas aeruginosa NCTC 10662",[7],−
same,"Intensity of fluorescence, Serratia marcescens NCTC 10211",[8],++
same,"Intensity of fluorescence, Staphylococcus aureus NCTC 6571",[9],++
same,"Intensity of fluorescence, Staphylococcus epidermidis NCTC 11047",[10],−
same,"Intensity of fluorescence, Streptococcus pyogenes NCTC 8306",[11],−
same,"Intensity of fluorescence, Yersinia enterocolitica NCTC 11176",[12],−
same,"Intensity of fluorescence, Acinetobacter baumanii ATCC 19606",[13]; [21],+
same,Distinguishing Pseudomonas aeruginosa from Acinetobacter baumanii,[13]; table 2,make it possible to distinguish Pseudomonas aeruginosa from Acinetobacter baumanii
same,"Intensity of fluorescence, Salmonella typhimurium NCTC 74",[14]; [21],++
same,Salmonella typhimurium result with the substrate,[14]; table 2,strongly positive
same,"Intensity of fluorescence, Morganella morganii 462403",[15],++
same,"Intensity of fluorescence, Staphylococcus aureus NCTC 11939",MRSA NCTC 11939,++
same,"Intensity of fluorescence, Candida glabrata NCPF3943",[16],−
same,"Distinguishing or identifying Staphylococcus aureus strains, in particular MRSA, from most of the other Gram-positive bacterial strains",[17],make it possible to distinguish or identify the Staphylococcus aureus strains
same,"No. of strains detected, S. aureus (including MRSA)",[17]; 24 h,10
same,"No. of strains detected, S. aureus (including MRSA)",[17]; 48 h,10
same,"No. of strains detected, S. epidermidis",S. epidermidis 2 strains; 24 h,0
same,"No. of strains detected, S. epidermidis",S. epidermidis 2 strains; 48 h,2
same,"No. of strains detected, Staph spp",Staph spp 12 strains; 24 h,12
same,"No. of strains detected, Staph spp",Staph spp 12 strains; 48 h,12
same,"No. of strains detected, Enterococcus",Enterococcus 6 strains; 24 h,0
same,"No. of strains detected, Enterococcus",Enterococcus 6 strains; 48 h,1
CN1CCN(c2ccc([N+](=O)[O-])c(-c3nc4ccccc4s3)c2)CC1 [Substrate 23],"Intensity of the fluorescence, Bacillus subtilis NCTC 9372",[1]; Table 4,−
same,"Intensity of the fluorescence, Candida albicans ATCC 90028",[2]; Table 4,−
same,"Intensity of the fluorescence, Citrobacter freundii 46262 (wild)",[18],+
same,"Intensity of the fluorescence, Enterobacter cloacae NCTC 11936",[3]; Table 4,+
same,"Intensity of the fluorescence, Enterococcus faecails NCTC 775",[4]; Table 4,−
same,"Intensity of the fluorescence, Enterococcus faecium NCTC 7171",[19],−
same,"Intensity of the fluorescence, Escherichia coli NCTC 10418",[5]; Table 4,−
same,"Intensity of the fluorescence, Listeria monocytogenes NCTC 11994",[6]; Table 4,−
same,"Intensity of the fluorescence, Providencia rettgeri NCTC 7475",[20],+
same,"Intensity of the fluorescence, Pseudomonas aeruginosa NCTC 10662",[7]; Table 4,+
same,"Intensity of the fluorescence, Serratia marcescens NCTC 10211",[8]; Table 4,+
same,"Intensity of the fluorescence, Staphylococcus aureus NCTC 6571",[9]; Table 4,V.
same,"Intensity of the fluorescence, Staphylococcus epidermidis NCTC 11047",[10]; Table 4,−
same,"Intensity of the fluorescence, Streptococcus pyogenes NCTC 8306",[11]; Table 4,−
same,"Intensity of the fluorescence, Yersinia enterocolitica NCTC 11176",[12]; Table 4,−
same,"Intensity of the fluorescence, Acinetobacter baumanii ATCC 19606",[13]; [22],−
same,"Intensity of the fluorescence, Salmonella typhimurium NCTC 74",[14]; [22],+
same,"Intensity of the fluorescence, Morganella morganii 462403 (wild)",[15]; Table 4,+
same,"Intensity of the fluorescence, MRSA NCTC 11939",MRSA NCTC 11939; Table 4,+/−
same,"Intensity of the fluorescence, Candida glabrata NCPF 3943",[16]; Table 4,−
